Assay in all cases: NCI60 five-dose screen
Holding throughout (type): cell-based

One assay concerns NCI-H322M. Particulars: Homo sapiens, Non-small-Cell Lung Cancer. On the procedure:
(§1) Since all new conjugates (3a–h) had notable antiproliferative activities on several tumor cell lines in the course of the one-dose screening, they were subjected to a five-dose test. […] J. Mol. Sci. 2025, 26, 11063 10 of 10 S.3. NCI60 Screening A detailed description of the NCI screening procedures can also be found on the website of NCI [39], and in our previous work. S.3.1. One-Dose Screen All candidates were examined at first at a single high dose (10 μM) in the full NCI60 cell panel. The value reported for the one-dose test is growth relative to the no-drug control and relative to the time zero number of cells. This made possible the disclosure of both growth inhibition (numbers between 0 and 100) and lethality (numbers less than 0). For example, a value of 100 means no growth inhibition. A value of 20 would mean 80% growth inhibition. A value of 0 means no net growth over the course of the analysis. A value of −20 would mean 20% lethality. A value of −100 means all cells are dead. S.3.2. […] The human tumor cell lines of the cancer screening panel were grown in RPMI 1640 medium containing 5% fetal bovine serum and 2 mM l-glutamine. Characteristically, cells were injected in 96-well microtiter plates in 0.1 mL at plating densities ranging from 5000 to 40,000 cells/well, depending on the doubling time of individual cell lines. After cell inoculation, the microtiter plates were incubated at 37 °C, 5% carbon dioxide, 95% air, and 100% relative humidity for 24 hours before the addition of tested compounds. After 24 hours, 2 plates of each cell line were fixed in situ with Cl3COOH (TCA), to represent a measurement of the cell population for each cell line at the time of drug addition (tz). Tested compounds were solubilized in DMSO at 400-fold the desired final maximum test concentration and stored frozen before application. In the course of the drug addition, an aliquot of frozen concentrate was thawed and diluted to twice the desired final maximum test concentration with a complete medium containing 50 μg mL−1 gentamicin. Additional four, 10-fold or ½ log serial dilutions were produced to furnish a total of five drug concentrations plus control. Aliquots of 0.1 mL of these different drug dilutions were added to the appropriate microtiter wells already containing 0.1 mL of medium, resulting in the required final drug concentrations. Following drug addition, the plates were incubated at 37 °C, 5% carbon dioxide, 95% air, and 100% relative humidity for an additional 48 hours. For adherent cells, the test was finished by the addition of cold Cl3COOH. Cells were fixed in situ by the addition of 50 μL of cold 50% (w/v) Cl3COOH, and incubated at 4 °C for 1 hour. The supernatant was discarded, and the plates were washed with H2O (5×) and dried in air. Sulforhodamine B (SRB) solution (0.1 mL) at 0.4% (w/v) in 1% CH3COOH was added to each well, and plates were incubated at RT for 10 min. After staining, the unbound dye was removed by washing five times with 1% CH3COOH, and the plates were dried in the air. The bound stain is afterward solubilized with a 10 mM trizma base, and the absorbance is read on an automated plate reader at λ = 515 nm. Utilizing the seven absorbance measurements [time zero (tz), control growth (c), and test growth in the presence of the drug at the five concentration levels (ti)], the percentage growth was determined at each of the drug concentration levels. Growth inhibition (%) was calculated as: [(ti − tz)/(c − tz)] × 100, for concentrations where ti ≥ tz (1) [(ti − tz)/(tz)] × 100, for concentrations where ti < tz. (2) Three dose‒response parameters were calculated as follows. GI50 (growth inhibition of 50%) was determined from Equation (3), which is the drug concentration resulting in a 50% reduction in the net protein increase (as measured by SRB staining) in control cells in the course of the drug incubation. [(ti − tz)/(c − tz)] × 100 = 50 (3)

For another assay, the system named is CCRF-CEM. Particulars: Homo sapiens, Leukemia. How it is done:
as §1

For the next assay, the system named is SN12C. Particulars: Homo sapiens, Renal Cancer. On the procedure: as §1
In the next assay the test system is UACC-62. Particulars: Homo sapiens; UACC-62, Melanoma. How it is done: as §1
The subject of the next assay is NCI-H522. Particulars: Homo sapiens; NCI-H522, Non-small-Cell Lung Cancer. On the procedure: as §1
In another assay the test system is MCF7. Particulars: Homo sapiens; MCF7, Breast Cancer. On the procedure: as §1
A further assay has as its system HCC-2998. Particulars: Homo sapiens; HCC-2998, Colon Cancer. How it is done:
as §1

The subject of the next assay is CAKI-1. Particulars: Homo sapiens; CAKI-1, Renal Cancer. How it is done: as §1
The test system of another assay is RPMI-8226. Particulars: Homo sapiens; RPMI-8226, Leukemia. How it is done: as §1
For a further assay, the system named is HCT-15. Particulars: Homo sapiens; HCT-15, Colon Cancer. How it is done:
as §1

The next assay deals with HT29. Particulars: Homo sapiens, HT-29; HT29, Colon Cancer. On the procedure: as §1
For a further assay, the system named is RXF 393. Particulars: Homo sapiens; RXF 393, Renal Cancer. How it is done:
as §1

The next assay concerns HOP-62. Particulars: Homo sapiens; HOP-62, Non-small-Cell Lung Cancer. How it is done:
as §1

The subject of the next assay is HCT-116. Particulars: Homo sapiens; HCT-116, Colon Cancer. On the procedure: as §1
In the next assay the test system is MDA-MB-468. Particulars: Homo sapiens; MDA-MB-468, Breast Cancer. How it is done: as §1
Another assay has as its system SR. Particulars: Homo sapiens, Leukemia. How it is done: as §1
The test system of another assay is OVCAR-8. Particulars: Homo sapiens; OVCAR-8, Ovarian Cancer. How it is done:
as §1

The next assay relates to SF-268. Particulars: Homo sapiens; SF-268, CNS Cancer. How it is done: as §1
The test system of another assay is EKVX. Particulars: Homo sapiens, Non-small-Cell Lung Cancer. On the procedure: as §1
For another assay, the system named is MALME-3M. Particulars: Homo sapiens, Melanoma. How it is done: as §1
The next assay relates to SNB-75. Particulars: Homo sapiens; SNB-75, CNS Cancer. How it is done: as §1
The test system of the next assay is U251. Particulars: Homo sapiens, U-251; U251, CNS Cancer. On the procedure: as §1

Structures are written as SMILES.

Data on six compounds can be found in paper PMC12652692, “Synthesis and In Vitro Anticancer Evaluation of Novel Phosphonium Derivatives of Chrysin” (International Journal of Molecular Sciences, 2025).

Broadly, the GI50 is the concentration that inhibits growth by half. A high value points to lower sensitivity of the cells.

On to `O=c1cc(-c2ccccc2)oc2cc(OCCCC[P+](c3ccccc3)(c3ccccc3)c3ccccc3)cc(O)c12` [3a], for which the GI50 in the assay with NCI-H322M turned out to be 976 nM; with CCRF-CEM, 335 nM; in the assay with SN12C, 330 nM; in the assay with UACC-62, 292 nM; with NCI-H522 it was 228 nM; in the assay with MCF7, 291 nM. Also, the GI50 with HCC-2998 worked out at 345 nM; in the assay with CAKI-1, 385 nM; in the assay on RPMI-8226, 205 nM; with HCT-15, 628 nM; with HT29 it was 1280 nM; with RXF 393, 225 nM. Further, the 50% growth inhibitory concentration (GI50) came to 480 nM with HOP-62; 297 nM in the assay with HCT-116; 128 nM with MDA-MB-468; 289 nM in the assay with SR; 350 nM in the assay on OVCAR-8; 380 nM in the assay with SF-268. For the same compound, the GI50 is 317 nM with EKVX, 270 nM in the assay on MALME-3M, 165 nM with SNB-75 and 315 nM in the assay with U251.
Consider `Cc1ccc([P+](CCCCOc2cc(O)c3c(=O)cc(-c4ccccc4)oc3c2)(c2ccc(C)cc2)c2ccc(C)cc2)cc1` [3b], for which the GI50 in the assay with NCI-H322M worked out at 532 nM; with CCRF-CEM, 324 nM; with SN12C, 389 nM; in the assay with UACC-62, 344 nM; in the assay on NCI-H522 it was 274 nM; with MCF7 it was 268 nM. Also, the 50% growth inhibitory concentration (GI50) stood at 380 nM in the assay on HCC-2998; 228 nM in the assay with CAKI-1; 144 nM in the assay on RPMI-8226; 311 nM in the assay on HCT-15; 855 nM with HT29; 333 nM with RXF 393. Also, the GI50 in the assay with HOP-62 worked out at 307 nM; with HCT-116 it was 248 nM; in the assay on MDA-MB-468 it was 123 nM; in the assay with SR, 261 nM; with OVCAR-8, 337 nM; in the assay on SF-268, 285 nM. Also, the 50% growth inhibitory concentration (GI50) with EKVX amounted to 275 nM; in the assay with MALME-3M, 381 nM; in the assay with SNB-75, 219 nM; with U251 it was 279 nM.
As to `COc1ccc([P+](CCCCOc2cc(O)c3c(=O)cc(-c4ccccc4)oc3c2)(c2ccc(OC)cc2)c2ccc(OC)cc2)cc1` [3c], the GI50 was found to be 1420 nM in the assay with NCI-H322M; 367 nM in the assay on CCRF-CEM; 317 nM with SN12C; 317 nM in the assay on UACC-62; 405 nM in the assay with NCI-H522; 407 nM in the assay with MCF7. Also, the 50% growth inhibitory concentration (GI50) was determined as 300 nM with HCC-2998; 1030 nM in the assay with CAKI-1; 235 nM with RPMI-8226; 1550 nM with HCT-15; 1250 nM in the assay with HT29; 257 nM in the assay on RXF 393. In addition, the 50% growth inhibitory concentration (GI50) came out at 732 nM with HOP-62; 337 nM in the assay with HCT-116; 248 nM with MDA-MB-468; 300 nM in the assay with SR; 408 nM in the assay with OVCAR-8; 351 nM with SF-268. The GI50 in the assay with EKVX came out at 462 nM; in the assay with MALME-3M, 287 nM; with SNB-75, 344 nM; with U251, 276 nM.
As for `O=c1cc(-c2ccccc2)oc2cc(OCCCC[P+](c3ccc(F)cc3)(c3ccc(F)cc3)c3ccc(F)cc3)cc(O)c12` [3d], the GI50 was found to be 1990 nM with NCI-H322M; 2310 nM with CCRF-CEM; 2490 nM in the assay with SN12C; 2050 nM with UACC-62; 1820 nM with NCI-H522; 1620 nM in the assay with MCF7. Further, the GI50 stood at 1670 nM in the assay with HCC-2998; 1780 nM in the assay with CAKI-1; 1310 nM in the assay with RPMI-8226; 1850 nM in the assay with HCT-15; 1840 nM in the assay on HT29; 1820 nM in the assay on RXF 393. Further, the GI50 with HOP-62 was 1560 nM; with HCT-116 it was 1670 nM; with MDA-MB-468, 1100 nM; with SR, 1990 nM; in the assay with OVCAR-8, 1840 nM; in the assay on SF-268, 1570 nM. For the same compound, the GI50 amounted to 2230 nM with EKVX, 2040 nM with MALME-3M, 1670 nM in the assay on SNB-75 and 1670 nM in the assay with U251.
For the compound `O=c1cc(-c2ccccc2)oc2cc(OCCCC[P+](C3CCCCC3)(C3CCCCC3)C3CCCCC3)cc(O)c12` [3e], the GI50 with NCI-H322M is 1580 nM; with CCRF-CEM, 477 nM; with SN12C it was 509 nM; in the assay with UACC-62 it was 368 nM; with NCI-H522, 457 nM; in the assay with MCF7 it was 956 nM. In addition, the GI50 in the assay with HCC-2998 amounted to 504 nM; in the assay with CAKI-1, 1570 nM; in the assay on RPMI-8226 it was 182 nM; in the assay with HCT-15 it was 1550 nM; in the assay with HT29 it was 1770 nM; with RXF 393 it was 461 nM. The GI50 in the assay with HOP-62 came to 1560 nM; in the assay on HCT-116, 882 nM; with MDA-MB-468, 273 nM; with SR, 260 nM; in the assay on OVCAR-8, 595 nM; with SF-268, 1040 nM. Further, the 50% growth inhibitory concentration (GI50) in the assay on EKVX was 1060 nM; in the assay on MALME-3M, 397 nM; in the assay on SNB-75, 529 nM; with U251 it was 287 nM.
For the compound `Cc1ccccc1[P+](CCCCOc1cc(O)c2c(=O)cc(-c3ccccc3)oc2c1)(c1ccccc1C)c1ccccc1C` [3g], the GI50 in the assay on NCI-H322M was 1380 nM; in the assay on CCRF-CEM, 242 nM; in the assay with SN12C, 230 nM; in the assay on UACC-62, 319 nM; with NCI-H522, 341 nM; with MCF7 it was 267 nM. In addition, the GI50 with HCC-2998 stood at 239 nM; in the assay on CAKI-1 it was 309 nM; with RPMI-8226, 135 nM; in the assay on HCT-15, 1410 nM; in the assay on HT29 it was 1220 nM; with HOP-62, 332 nM. Also, the GI50 in the assay on HCT-116 is 265 nM; with MDA-MB-468, 148 nM; with SR, 206 nM; in the assay with OVCAR-8 it was 560 nM; in the assay with SF-268, 279 nM; in the assay with MALME-3M, 353 nM. Also, the GI50 with SNB-75 came to 274 nM; with U251, 225 nM.
